The record followed here is ChEMBL document CHEMBL1140149, “Discovery of bioavailable 4,4-disubstituted piperidines as potent ligands of the chemokine receptor 5 and inhibitors of the human immunodeficiency virus-1” (J Med Chem, 2008).

A value given as a limit tells only on which side of the number the result lay.

One may read the IC50 as the concentration needed to halve the response being measured. A low value points to greater potency in that assay. Broadly, the bioavailability is the share of a dose that reaches the circulation, judged against a reference dose that is usually intravenous. The low end stands for poor availability, the high end for good availability. As a reminder, the clearance is the volume of plasma or blood freed of the substance per unit of time.

Sequence of C-C chemokine receptor type 5 (P51681 whole entry): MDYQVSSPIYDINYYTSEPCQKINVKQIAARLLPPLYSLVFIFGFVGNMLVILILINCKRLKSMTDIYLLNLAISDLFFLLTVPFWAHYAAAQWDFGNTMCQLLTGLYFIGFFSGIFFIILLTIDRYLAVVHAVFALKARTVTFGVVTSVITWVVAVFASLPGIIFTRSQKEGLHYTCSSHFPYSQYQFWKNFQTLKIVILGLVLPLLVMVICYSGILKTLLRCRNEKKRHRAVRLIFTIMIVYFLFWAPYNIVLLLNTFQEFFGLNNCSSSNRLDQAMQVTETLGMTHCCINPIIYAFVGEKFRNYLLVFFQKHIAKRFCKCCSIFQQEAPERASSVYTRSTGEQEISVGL

One data set addresses C-C chemokine receptor type 5 (Homo sapiens, UniProt P51681). Briefly: Displacement of [125I]MIP-1beta from human CCR5 expressed in CHO cells. Format: cell-based.
Conditions: not given
`O=C1CCC(CCCN2CCC(n3c(=O)[nH]c4ccccc43)CC2)(c2ccc(Cl)c(Cl)c2)CN1Cc1ccccc1` (stereo not given): the IC50 was 20000 nM.
The same measure, in the same setting: as for `Cc1nc2ccccc2n1[C@H]1C[C@H]2CC[C@@H](C1)N2CCCC1(c2ccccc2)CCN(C(=O)OC(C)(C)C)CC1`, the figure is over 31600 nM; as for `Cc1nc2ccccc2n1[C@@H]1C[C@H]2CC[C@@H](C1)N2CCCC1(c2ccc(Cl)c(Cl)c2)CCN(C(=O)OC(C)(C)C)CC1`, 20000 nM; as for `Cc1nc2ccccc2n1[C@@H]1C[C@H]2CC[C@@H](C1)N2CCCC1(c2ccccc2)CCN(C(=O)c2ccco2)CC1`, 5010 nM.
The same measure, in the same setting: then `Cc1nc2ccccc2n1[C@@H]1C[C@H]2CC[C@@H](C1)N2CCCC1(c2ccccc2)CCN(C(=O)c2ccccc2)CC1`, with 1260 nM; and `Cc1nc2ccccc2n1[C@@H]1C[C@H]2CC[C@@H](C1)N2CCC1(c2ccccc2)CCN(C(=O)OC(C)(C)C)CC1`, with 63.1 nM; and `Cc1nc2ccccc2n1[C@@H]1C[C@H]2CC[C@@H](C1)N2CCC1(c2ccccc2)CCN(C(=O)OCc2ccccc2)CC1`, with 63.1 nM.
The same measure, in the same setting: as for `Cc1nc2ccccc2n1[C@H]1C[C@H]2CC[C@@H](C1)N2CCC1(c2ccc(Cl)c(Cl)c2)CCN(C(=O)c2ccccc2)CC1`, the figure is 15.8 nM; as for `Cc1nc2ccccc2n1[C@H]1C[C@H]2CC[C@@H](C1)N2CCC1(c2cccc(Cl)c2)CCN(C(=O)c2ccccc2)CC1`, 5.25 nM.
The molecule `Cc1nc2ccccc2n1[C@H]1C[C@H]2CC[C@@H](C1)N2CCC1(c2ccc(Cl)c(Cl)c2)CCN(C(=O)C(C)(C)C)CC1` had an IC50 of 7.24 nM.
Same read-out and setting: then `Cc1nc2ccccc2n1[C@H]1C[C@H]2CC[C@@H](C1)N2CCC1(c2ccc(Cl)c(Cl)c2)CCN(C(=O)OC(C)(C)C)CC1`, with 29.5 nM; and `Cc1nc2ccccc2n1[C@H]1C[C@H]2CC[C@@H](C1)N2CCC1(c2cccc(Cl)c2)CCN(C(=O)OC(C)(C)C)CC1`, with 5.01 nM; and `Cc1nc2ccccc2n1[C@H]1C[C@H]2CC[C@@H](C1)N2CCC1(c2ccc(Cl)c(Cl)c2)CCN(C(=O)OC(C)(C)C)C1` (stereo not given in full), with 776 nM.
The same measure, in the same setting: as for `O=C(c1ccccc1)N1CCCC(CCCN2CCC(n3c(=O)[nH]c4ccccc43)CC2)(c2ccc(Cl)c(Cl)c2)C1` (stereo not given), the figure is 1580 nM; as for `CN1CN(c2ccccc2)C2(CCN(CCCC3(c4ccc(Cl)c(Cl)c4)CCN(C(=O)c4ccco4)C3)CC2)C1=O` (stereo not given), 7080 nM; as for `O=C1NCN(c2ccccc2)C12CCN(CCOC1(c3ccc(Cl)c(Cl)c3)CCN(S(=O)(=O)c3ccccc3)CC1)CC2`, 2400 nM.
On the same count and under the same terms, then `O=C1CC(CCCN2CCC3(CC2)C(=O)NCN3c2ccccc2)(c2ccc(Cl)c(Cl)c2)CN1Cc1ccccc1` (stereo not given), with 1020 nM.
`NC(=O)C1(Nc2ccccc2)CCN(CCCC2(c3ccc(Cl)c(Cl)c3)CCCN(C(=O)c3ccccc3)C2)CC1` (stereo not given) had an IC50 of over 31600 nM.
Still for that read-out and setting: then `CC(C)(C)OC(=O)N1CCC(CCN2CCC3(CC2)C(=O)NCN3c2ccccc2)(c2ccccc2)CC1`, with 4570 nM; and `CC(C)(C)OC(=O)N1CCC(CCCN2CCC(n3c(=O)[nH]c4ccccc43)CC2)(c2ccc(Cl)c(Cl)c2)CC1`, with 7940 nM.
On the same count and under the same terms, then `CC(C)(C)OC(=O)N1CCC(CCCN2CCC(n3c(=O)[nH]c4ccccc43)CC2)(c2ccccc2)CC1`, with 3980 nM.
The same measure, in the same setting: then `O=C(c1ccco1)N1CCC(CCCN2CCC3(CC2)C(=O)NCN3C2CCCCC2)(c2ccc(Cl)c(Cl)c2)C1` (stereo not given), with over 31600 nM; and `O=C1CC(CCN2CCC3(CC2)C(=O)NCN3c2ccccc2)(c2ccc(Cl)c(Cl)c2)CN1Cc1ccccc1` (stereo not given), with 9330 nM; and `O=C1NCN(c2ccccc2)C12CCN(CCCC1(c3ccc(Cl)c(Cl)c3)CCN(Cc3ccco3)C1)CC2` (stereo not given), with 5250 nM.
The molecule `O=C(c1ccco1)N1CCC(CCN2CCC3(CC2)C(=O)NCN3c2ccccc2)(c2ccccc2)C1` (stereo not given) had an IC50 of 9330 nM.
`O=C(c1ccco1)N1CCC(OCCN2CCC3(CC2)C(=O)NCN3c2ccccc2)(c2ccc(Cl)c(Cl)c2)CC1` showed an IC50 of 3470 nM.
On to `O=C1NCN(c2ccccc2)C12CCN(CCCC1(c3ccc(Cl)c(Cl)c3)CN(S(=O)(=O)c3ccccc3)C1)CC2`, for which the IC50 is 9120 nM.
The same measure, in the same setting: as for `O=C1NCN(c2ccccc2)C12CCN(CCOC1(c3ccc(Cl)c(Cl)c3)CCN(S(=O)(=O)c3ccccc3)C1)CC2` (stereo not given), the figure is 20400 nM.
Same read-out and setting: as for `O=C1CCC(CCCN2CCC3(CC2)C(=O)NCN3c2ccccc2)(c2ccc(Cl)c(Cl)c2)CN1Cc1ccccc1` (stereo not given), the figure is 1000 nM.
The same measure, in the same setting: as for `Cc1nc2ccccc2n1C1CC2COCC(C1)N2CCC1(c2ccccc2)CCN(C(=O)c2ccccc2)CC1` (stereo not given), the figure is over 3160 nM.
Molecule `O=C(c1ccco1)N1CCC(CCCN2CCC3(CC2)C(=O)NC(=O)N3c2ccccc2)(c2ccc(Cl)c(Cl)c2)C1` (stereo not given) gave a 50% inhibitory concentration (IC50) of over 31600 nM.
The same measure, in the same setting: as for `O=C(c1ccccc1)N1CCCC(CCCN2CCC3(CC2)C(=O)NCN3c2ccccc2)(c2ccc(Cl)c(Cl)c2)C1` (stereo not given), the figure is 447 nM; as for `O=C(C1CCCC1)N1CCC(OCCN2CCC3(CC2)C(=O)NCN3c2ccccc2)(c2ccc(Cl)c(Cl)c2)C1` (stereo not given), 4790 nM.
On the same count and under the same terms, as for `O=C(c1ccco1)N1CCC(CCN2CCC3(CC2)C(=O)NCN3c2ccccc2)(c2ccc(Cl)c(Cl)c2)C1` (stereo not given), the figure is 1480 nM; as for `O=C(c1ccco1)N1CCC(OCCN2CCC3(CC2)C(=O)NCN3c2ccccc2)(c2ccc(Cl)c(Cl)c2)C1` (stereo not given), 3980 nM; as for `O=C(c1ccco1)N1CCC(CCCN2CCC3(CC2)C(=O)NCN3c2ccccc2)(c2ccc(Cl)c(Cl)c2)C1` (stereo not given), 141 nM.
Same read-out and setting: then `CC(C)(C)OC(=O)N1CCC(CCCN2CCC3(CC2)C(=O)NCN3c2ccccc2)(c2ccccc2)CC1`, with 8510 nM.
Turning to `Cc1nc2ccccc2n1[C@H]1CC2CC[C@H](C1)N2CCC1(c2ccccc2)CCN(C(=O)C2CCCC2)CC1` (single isomer, unassigned), the IC50 is 20 nM.

The next data set has as its system Human immunodeficiency virus 1. The experiment in a line: Antiviral activity against HIV1 Ba-L in human HOS cells by MTS assay. The conditions noted are these: Human immunodeficiency virus 1, Ba-L. Format: functional, organism-based. Background: Tetrazolium dyes change colour on reduction, which living cells bring about.
Turning to `Cc1nc2ccccc2n1[C@@H]1C[C@H]2CC[C@@H](C1)N2CCC1(c2ccccc2)CCN(C(=O)OC(C)(C)C)CC1`, the concentration for half-maximal inhibition (IC50) is 1260 nM.
Same read-out and setting: then `Cc1nc2ccccc2n1[C@H]1C[C@H]2CC[C@@H](C1)N2CCC1(c2ccc(Cl)c(Cl)c2)CCN(C(=O)C(C)(C)C)CC1`, with 33.9 nM; and `Cc1nc2ccccc2n1[C@H]1C[C@H]2CC[C@@H](C1)N2CCC1(c2cccc(Cl)c2)CCN(C(=O)C(C)(C)C)CC1`, with 14.5 nM.

A further data set concerns Human immunodeficiency virus 1. Briefly: Antiviral activity against HIV1 Ba-L in human PBL cells by MTS assay. Format: functional, organism-based. The note with it: Human immunodeficiency virus 1, Ba-L.
`Cc1nc2ccccc2n1[C@H]1C[C@H]2CC[C@@H](C1)N2CCC1(c2cccc(Cl)c2)CCN(C(=O)C(C)(C)C)CC1` showed an IC50 of 1.91 nM.

Test system in another data set: not listed separately
Briefly: Bioavailability in rat at 1 mg/kg, po. The note with it: in vivo.
In turn, `Cc1nc2ccccc2n1[C@H]1C[C@H]2CC[C@@H](C1)N2CCC1(c2cccc(Cl)c2)CCN(C(=O)C(C)(C)C)CC1` registered a bioavailability of 26%.

The species named for another data set is Rattus norvegicus.
Experiment: not given
Conditions: not given
`Cc1nc2ccccc2n1[C@H]1C[C@H]2CC[C@@H](C1)N2CCC1(c2cccc(Cl)c2)CCN(C(=O)C(C)(C)C)CC1` registered an LBF of 38%.

Test system in the next data set: not listed separately
The experiment in a line: in vivo. The conditions noted are these: rat.
In turn, `Cc1nc2ccccc2n1[C@H]1C[C@H]2CC[C@@H](C1)N2CCC1(c2cccc(Cl)c2)CCN(C(=O)C(C)(C)C)CC1` yielded a clearance of 21 mL/min/kg.
